Measured values from ChEMBL document CHEMBL3244207, “Synthesis and antiallergic activity of 2-hydroxy-3-nitro-1,4-naphthoquinones” (1977).
Active and inactive are the calls of the source. No cut-off for these calls is given here.

Each compound was assayed on Rattus norvegicus (assay: Antiallergic activity in po dosed Wistar rat assessed as inhibition of passive cutaneous anaphylaxis administered 10 mins prior to antigen-challenge).
Format: functional

SMILES | ED50
Cc1cc2c(cc1C)C(=O)C([N+](=O)[O-])=C(O)C2=O | 100 µmol/kg
O=C1C(O)=C([N+](=O)[O-])C(=O)c2cc3c(cc21)CCCC3 | 100 µmol/kg

The compounds below were run on Rattus norvegicus (assay: Antiallergic activity in Wistar rat assessed as inhibition of passive cutaneous anaphylaxis up to 500 uM/kg, sc).
Format: functional, organism-based

SMILES | inhibition
Cc1c(O)c([N+](=O)[O-])c(O)c2ccccc12 | inactive
Cc1cccc2c1C(C)(C)C(=O)C([N+](=O)[O-])=C2O | inactive
Cc1ccc2c(c1)C(O)=C([N+](=O)[O-])C(=O)C2(C)C | inactive
CC1(C)C(=O)C([N+](=O)[O-])=C(O)c2ccccc21 | inactive

The compounds below were run on Rattus norvegicus (assay: Antiallergic activity in sc dosed Wistar rat assessed as inhibition of passive cutaneous anaphylaxis at Tmax).
Format: functional

SMILES | ED50
O=C1C(O)=C([N+](=O)[O-])C(=O)c2ccc(-c3ccccc3)cc21 | > 500 µmol/kg
CCOc1ccc2c(c1)C(=O)C(O)=C([N+](=O)[O-])C2=O | 68.2 µmol/kg
O=C1C([N+](=O)[O-])=C(O)C(=O)c2c(O)cccc21 | > 500 µmol/kg
O=C1C(O)=C([N+](=O)[O-])C(=O)c2ccc(F)cc21 | > 500 µmol/kg
Cc1cc2c(cc1C)C(=O)C([N+](=O)[O-])=C(O)C2=O | 11 µmol/kg
Cc1ccc2c(c1)C(=O)C(O)=C([N+](=O)[O-])C2=O | 181 µmol/kg
O=C1C(O)=C([N+](=O)[O-])C(=O)c2ccccc21 | 141 µmol/kg
CCc1cc2c(cc1CC)C(=O)C([N+](=O)[O-])=C(O)C2=O | 27.3 µmol/kg
O=C1C(O)=C([N+](=O)[O-])C(=O)c2cc3c(cc21)CCCC3 | 7.3 µmol/kg
Cc1cccc2c1C(=O)C(O)=C([N+](=O)[O-])C2=O | 76.2 µmol/kg
O=C1C(O)=C([N+](=O)[O-])C(=O)c2ccc(Br)cc21 | > 500 µmol/kg
COc1ccc2c(c1)C(=O)C(O)=C([N+](=O)[O-])C2=O | 51.3 µmol/kg
Cc1ccc2c(c1)C(=O)C([N+](=O)[O-])=C(O)C2=O | 63.9 µmol/kg
O=C(O)c1cc(=O)c2c(OCC(O)COc3cccc4oc(C(=O)O)cc(=O)c34)cccc2o1 [CROMOLYN SODIUM] | 13.1 µmol/kg
COc1cc2c(cc1OC)C(=O)C([N+](=O)[O-])=C(O)C2=O | 42.8 µmol/kg
